Test results as given in article PMC4721142, “Randomized controlled studies on the efficacy of antiarthritic agents in inhibiting cartilage degeneration and pain associated with progression of osteoarthritis in the rat” (Arthritis Research & Therapy, 2016).

What was measured:
RAW 264.7 cells = experiment: RANKL-mediated osteoclastogenesis / matrix resorption (Osteologic) assay; format: cell-based, murine; details: Mus musculus, RAW264.7, 168 h; read-out: Lowest inhibitory concentration, matrix resorption
Summary of the method: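 Agents were tested during or after differentiation. Wells were bleached and resorption pits were quantified by image analysis versus RANKL-only controls, using an unpaired t-test.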

[1] = Comparison of in vitro screens: overlapping effective and nontoxic range;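 note: compares non-toxic ranges in synovial cells and chondrocytes with effective ranges against NFkB, MMP-13 and osteoclasts, giving their overlap as the predicted efficacy range in uM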
MMT/MCLT rat model of OA = experiment: MMT/MCLT trial 1 histopathology (same doses); format: in vivo; parameters: key to Tibial cartilage degeneration score, 3-zone total: sum of three tibial zone scores (each on 5-point scale); key to Total joint score w/o femur / Total joint score / Total joint score without femur: sum: cartilage degeneration scores + mean osteophyte score; details: for Bone score / Depth ratio any matrix change, mean / Depth ratio any matrix change, zone 2 / Tibial cartilage degeneration score, 3-zone total / Tibial cartilage degeneration score, zone 1 / Tibial cartilage degeneration score, zone 2 / Tibial cartilage degeneration score, zone 3 / Tibial cartilage degeneration width, significant / Tibial cartilage degeneration width, total / Tibial osteophyte measure / Tibial osteophyte score / Total joint score w/o femur: mean
Text: For MMT/MCLT rat knee joints, sections were cut in 200-μm steps; stained with toluidine blue (also with a right and left half per section); and similarly analyzed for cartilage degeneration, proteoglycan loss, collagen damage, and osteophyte formation. Results were averaged across the three sections for an overall semiquantitative score. Regional differences across the tibial plateau were taken into consideration by dividing each section into three zones delineated using an ocular micrometer (outside, middle, and inside). Scores were based on the percentage of area affected within the zone.
Cartilage degeneration in the tibia was scored on a 5-point scale as detailed in the Methods section of Additional file 1. The total extent of degeneration of the tibial plateau was measured (in micrometers) and included an analysis of cell loss, proteoglycan loss, and collagen damage. Significant cartilage degeneration reflecting any degeneration extending through more than 50 % of the cartilage thickness was also measured. Collagen damage across the medial tibial plateau (the most severely affected section of the two halves) was also quantified.
Osteophytes and femoral cartilage degeneration were analyzed as detailed in Additional file 1. Scoring of the osteophytes and categorization into small, medium, and large was performed using an ocular micrometer. The actual osteophyte measurement (tidemark to farthest distance point extending toward the synovium) was also recorded. The femoral cartilage degeneration score and the three-zone sum of the tibial cartilage degeneration scores (mean of three levels) were summed to create a total cartilage degeneration score. The mean osteophyte score for each joint was added to this value to create a total joint score. […]
Histopathology MMT/MCLT Model

[2] = tacrolimus 0.6 mg/kg, fluocinolone 10 μg/kg
[3] = vs saline group, low or only dose
[4] = vs saline group, tacrolimus 0.6 mg/kg, fluocinolone 10 μg/kg

C=CC[C@@H]1/C=C(\C)C[C@H](C)C[C@H](OC)[C@H]2O[C@@](O)(C(=O)C(=O)N3CCCC[C@H]3C(=O)O[C@H](/C(C)=C/[C@@H]3CC[C@@H](O)[C@H](OC)C3)[C@H](C)[C@@H](O)CC1=O)[C@H](C)C[C@@H]2OC [Tacrolimus]
minimal effective concentration (RAW 264.7 cells): 0.0026 µM
Non-toxic & predicted range of efficacy [1]: 25 to 50 µM
Overlapping effective and nontoxic range ([1]; inhibits with minimal or no toxicity to synovium or cartilage, overlapping range if effective in more than one assay): 50 µM
Bone score (MMT/MCLT rat model of OA; low or only dose): 2.63
Depth ratio any matrix change, mean (MMT/MCLT rat model of OA; low or only dose): 0.26
Depth ratio any matrix change, zone 2 (MMT/MCLT rat model of OA; low or only dose): 0.07
Tibial cartilage degeneration score, 3-zone total (MMT/MCLT rat model of OA; low or only dose): 4.25
Tibial cartilage degeneration score, zone 1 (MMT/MCLT rat model of OA; low or only dose): 2.75
Tibial cartilage degeneration score, zone 2 (MMT/MCLT rat model of OA; low or only dose): 1.50
Tibial cartilage degeneration score, zone 3 (MMT/MCLT rat model of OA; low or only dose): 0.00
Tibial cartilage degeneration width, significant (MMT/MCLT rat model of OA; low or only dose): 441.67 µm
Tibial cartilage degeneration width, total (MMT/MCLT rat model of OA; low or only dose): 1137.50 µm
Tibial osteophyte measure (MMT/MCLT rat model of OA; low or only dose): 370.83 µm
Tibial osteophyte score (MMT/MCLT rat model of OA; low or only dose): 2.38
Total joint score w/o femur (MMT/MCLT rat model of OA; low or only dose): 6.63
Bone score (MMT/MCLT rat model of OA; [2]): 3.00
Depth ratio any matrix change, mean (MMT/MCLT rat model of OA; [2]): 0.22
Depth ratio any matrix change, zone 2 (MMT/MCLT rat model of OA; [2]): 0.02
Tibial cartilage degeneration score, 3-zone total (MMT/MCLT rat model of OA; [2]): 3.63
Tibial cartilage degeneration score, zone 1 (MMT/MCLT rat model of OA; [2]): 2.42
Tibial cartilage degeneration score, zone 2 (MMT/MCLT rat model of OA; [2]): 1.21
Tibial cartilage degeneration score, zone 3 (MMT/MCLT rat model of OA; [2]): 0.00
Tibial cartilage degeneration width, significant (MMT/MCLT rat model of OA; [2]): 325.00 μm
Tibial cartilage degeneration width, total (MMT/MCLT rat model of OA; [2]): 945.83 μm
Tibial osteophyte measure (MMT/MCLT rat model of OA; [2]): 370.00 μm
Tibial osteophyte score (MMT/MCLT rat model of OA; [2]): 2.38
Total joint score w/o femur (MMT/MCLT rat model of OA; [2]): 6.00
% decrease, combined width severe+marked (MMT/MCLT rat model of OA; tacrolimus 0.3 mg/kg): 86%
% decrease, combined width severe+marked+moderate (MMT/MCLT rat model of OA; tacrolimus 0.3 mg/kg): 88%
% decrease, combined width severe+marked+moderate+mild (MMT/MCLT rat model of OA; tacrolimus 0.3 mg/kg): 33%
% decrease, width of moderate collagen degeneration (MMT/MCLT rat model of OA; tacrolimus 0.3 mg/kg): 91%
% decrease, width of severe collagen degeneration (MMT/MCLT rat model of OA; tacrolimus 0.3 mg/kg): 97%
% increase, area of any cartilage matrix (MMT/MCLT rat model of OA; tacrolimus 0.3 mg/kg): 59%
% increase, area of viable cartilage matrix (MMT/MCLT rat model of OA; tacrolimus 0.3 mg/kg, fluocinolone 5 ug/kg): 26%
% decrease, combined width severe+marked (MMT/MCLT rat model of OA; tacrolimus 0.6 mg/kg): 99%
% decrease, combined width severe+marked+moderate (MMT/MCLT rat model of OA; tacrolimus 0.6 mg/kg): 96%
% decrease, combined width severe+marked+moderate+mild (MMT/MCLT rat model of OA; tacrolimus 0.6 mg/kg): 53%
% decrease, width of marked collagen degeneration (MMT/MCLT rat model of OA; tacrolimus 0.6 mg/kg): 97%
% decrease, width of severe collagen degeneration (MMT/MCLT rat model of OA; tacrolimus 0.6 mg/kg): 100%
% decrease, width of total collagen degeneration (MMT/MCLT rat model of OA; tacrolimus 0.6 mg/kg): 19%
% increase, area of any cartilage matrix (MMT/MCLT rat model of OA; tacrolimus 0.6 mg/kg): 69%
% increase, width of normal collagen (MMT/MCLT rat model of OA; tacrolimus 0.6 mg/kg): 19%
% increase, area of viable cartilage matrix (MMT/MCLT rat model of OA; tacrolimus 0.6 mg/kg, fluocinolone 10 ug/kg): 33%
% decrease, bone score (MMT/MCLT rat model of OA; [3]): 19%
% decrease, depth ratio mean (MMT/MCLT rat model of OA; [3]): 29%
% decrease, depth ratio zone 2 (MMT/MCLT rat model of OA; [3]): 59%
% decrease, femoral cartilage degeneration score (MMT/MCLT rat model of OA; [3]): 73%
% decrease, osteophyte measure (MMT/MCLT rat model of OA; [3]): 28%
% decrease, osteophyte score (MMT/MCLT rat model of OA; [3]): 39%
% decrease, significant degeneration width (MMT/MCLT rat model of OA; [3]): 39%
% decrease, tibial score 3-zone total (MMT/MCLT rat model of OA; [3]): 35%
% decrease, tibial score zone 1 (MMT/MCLT rat model of OA; [3]): 36%
% decrease, tibial score zone 2 (MMT/MCLT rat model of OA; [3]): 32%
% decrease, tibial score zone 3 (MMT/MCLT rat model of OA; [3]): 100%
% decrease, total degeneration width (MMT/MCLT rat model of OA; [3]): 13%
% decrease, total joint score (MMT/MCLT rat model of OA; [3]): 42%
% decrease, total joint score w/o femur (MMT/MCLT rat model of OA; [3]): 37%
% decrease, bone score (MMT/MCLT rat model of OA; [4]): 8%
% decrease, depth ratio mean (MMT/MCLT rat model of OA; [4]): 40%
% decrease, depth ratio zone 2 (MMT/MCLT rat model of OA; [4]): 87%
% decrease, femoral cartilage degeneration score (MMT/MCLT rat model of OA; [4]): 48%
% decrease, osteophyte measure (MMT/MCLT rat model of OA; [4]): 28%
% decrease, osteophyte score (MMT/MCLT rat model of OA; [4]): 39%
% decrease, significant degeneration width (MMT/MCLT rat model of OA; [4]): 55%
% decrease, tibial score 3-zone total (MMT/MCLT rat model of OA; [4]): 45%
